Measured values from patent US11608341B2, “Substituted tetrahydropyrazolo[3,4-d]pyrimidines and tetrahydropyrazolo[4,3-d]pyrimidines as C5A receptor modulators” (Idorsia Pharmaceuticals Ltd., priority 2018, dated 2023).

target: T1, C5AR1 (Homo sapiens, UniProt P21730); experiment: In vitro assay: antagonism of C5a-induced beta-arrestin recruitment (PathHunter) in CHO-K1 C5AR1 beta-arrestin cell line; format: cell-based; conditions: antagonistic activity, 1-10 nM C5a agonist, geometric mean where several measurements, read-out: C5aR IC50
T1 construct: host or cells: CHO-K1
T1 sequence (P21730 1-350): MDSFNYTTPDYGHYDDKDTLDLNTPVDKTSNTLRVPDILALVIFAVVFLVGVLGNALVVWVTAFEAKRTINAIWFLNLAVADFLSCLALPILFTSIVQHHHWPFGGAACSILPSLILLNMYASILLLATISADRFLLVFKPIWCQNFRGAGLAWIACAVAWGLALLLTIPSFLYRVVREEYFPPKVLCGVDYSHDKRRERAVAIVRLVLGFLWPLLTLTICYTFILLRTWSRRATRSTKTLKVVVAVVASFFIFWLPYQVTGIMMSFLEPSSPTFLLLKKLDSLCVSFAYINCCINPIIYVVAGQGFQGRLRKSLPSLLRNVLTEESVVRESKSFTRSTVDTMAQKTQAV
Outline: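 Antagonist or DMSO added first, then C5a (1-10 nM, added at 6-fold end concentration), 1.5 h at 37 °C. PathHunter detection reagent was added for 45 min at RT before plate reading. IC50s come from antagonist serial dilutions in nmol/l and are geometric means of several measurements.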

| IC50 [nM] | SMILES |
| --- | --- |
| 17 | COC[C@H](O)Cn1cc2c(n1)N(Cc1ccccc1C(F)(F)F)C(=O)N(C1CCN(c3c(C)cccc3F)CC1)C2 [Example 41] |
| 515 | COc1nccc(C)c1N1CCC(N2C(=O)N(Cc3ccccc3C3CC3)c3cn(C4CC4)nc3C2C)CC1 (single isomer, unassigned) [Example 292] |
| 17 | Cc1cccc(F)c1N1CCC(N2Cc3cn(C4CNC4=O)nc3N(Cc3ccccc3C(F)(F)F)C2=O)CC1 (stereo not shown) [Example 157] |
| 21 | COC[C@@H](O)Cn1cc2c(n1)N(Cc1ccccc1C(F)(F)F)C(=O)N(C1CCN(c3c(C)cccc3F)CC1)C2 [Example 46] |
| 18 | Cn1cc2c(n1)N(Cc1ccccc1C(F)(F)F)C(=O)N(C1CCN(c3c(F)cccc3Cl)CC1)C2 [Example 272] |
| 578 | Cc1cccc(F)c1N1CCC(N2Cc3cn(CC(C)(C)N)nc3N(Cc3ccccc3C(F)(F)F)C2=O)CC1 [Example 118] |
| 19 | Cc1cccc(C)c1N1CCC(N2Cc3cn(C)nc3N(Cc3ccccc3C(F)(F)F)C2=O)C1 (single isomer, unassigned) [Example 57] |
| 21 | COc1nccc(C)c1N1CCC(N2C(=O)N(Cc3ccccc3C3CC3)c3nn(C4CC4)cc3C2C)CC1 (single isomer, unassigned) [Example 380] |
| 1420 | CC1c2nn(C3CC3)cc2N(Cc2ccccc2C(F)(F)F)C(=O)N1C1CCN(c2c(F)cccc2C(F)F)CC1 (single isomer, unassigned) [Example 330] |
| 16 | Cc1cccc(F)c1N1CCC(N2C(=O)N(Cc3ccccc3C(F)(F)F)c3nn(CC(C)(F)F)cc3C2C)CC1 (single isomer, unassigned) [Example 305] |
| 10 | Cc1cccc(F)c1N1CCC(N2Cc3cn(C(C)C(F)F)nc3N(Cc3ccccc3C(F)(F)F)C2=O)CC1 (single isomer, unassigned) [Example 188] |
| 628 | Cc1cccc(F)c1N1CCCC(N2Cc3cn(C)nc3N(Cc3ccccc3C(F)(F)F)C2=O)C1 (single isomer, unassigned) [Example 242] |
| 14 | Cc1cccc(F)c1N1CCC(N2Cc3c[nH]nc3N(Cc3ncccc3C(F)(F)F)C2=O)CC1 [Example 193] |
| 919 | Cc1cccc(F)c1N1CCC(N2C(=O)N(Cc3ccccc3C(F)(F)F)c3cn(C)nc3C2C)CC1 (single isomer, unassigned) [Example 202] |
| 550 | Cc1nn(C)c(N2CCC(N3Cc4cn(C)nc4N(Cc4ccccc4C(F)(F)F)C3=O)CC2)c1C#N [Example 229] |
| 13 | Cc1cccc(F)c1N1CCC(N2Cc3cn(CC4(F)COC4)nc3N(Cc3ccccc3C(F)(F)F)C2=O)CC1 [Example 164] |
| 8 | COc1nccc(C)c1N1CCC(N2C(=O)N(Cc3ccccc3C(F)(F)F)c3nn(C4CC4)cc3C2C)CC1 (single isomer, unassigned) [Example 344] |
| 4 | CC1c2c[nH]nc2N(Cc2ccccc2C(F)(F)F)C(=O)N1C1CCN(c2c(F)cccc2Cl)CC1 (single isomer, unassigned) [Example 350] |
| 173 | Cc1cccc(F)c1N1CCC(N2Cc3cn(CCN)nc3N(Cc3ccccc3C(F)(F)F)C2=O)CC1 [Example 26] |
| 8 | CC1c2cn(C)nc2N(Cc2ccccc2C(F)(F)F)C(=O)N1C1CCN(c2c(F)cccc2C(F)F)CC1 (single isomer, unassigned) [Example 314] |

| IC50 [nM] | SMILES |
| --- | --- |
| 1330 | COc1nccc(C(F)F)c1N1CCC(N2C(=O)N(Cc3ccccc3C3CC3)c3n[nH]cc3C2C)CC1 (single isomer, unassigned) [Example 371] |
| 12 | Cc1cccc(F)c1N1CCC(N2Cc3cn(CCO)nc3N(Cc3ccccc3C(F)(F)F)C2=O)CC1 [Example 20] |
| 4 | Cc1cccc(F)c1N1CCC(N2Cc3cn(CC4(F)CC4)nc3N(Cc3ncccc3C(F)(F)F)C2=O)CC1 [Example 200] |
| 5 | Cc1cccc(F)c1N1CCC(N2C(=O)N(Cc3ncccc3C(F)(F)F)c3nn(C)cc3C2C)CC1 (single isomer, unassigned) [Example 354] |
| 29 | COc1nccc(C)c1N1CCC(N2C(=O)N(Cc3ccccc3C(F)(F)F)c3cn(C)nc3C2C)CC1 (single isomer, unassigned) [Example 298] |
| 9 | COc1nccc(C(F)(F)F)c1N1CCC(N2C(=O)N(Cc3ccccc3C(F)(F)F)c3nn(C)cc3C2C)CC1 (single isomer, unassigned) [Example 362] |
| 46 | CNc1ccc(C(F)(F)F)c(CN2C(=O)N(C3CCN(c4c(C)cccc4F)CC3)Cc3cn(C)nc32)n1 [Example 51] |
| 109 | Cc1cccc(F)c1N1CCC(C)(N2Cc3cn(C)nc3N(Cc3ccccc3C(F)(F)F)C2=O)C1 (single isomer, unassigned) [Example 234] |
| 727 | Cc1cccc(F)c1N1CCC(N2Cc3cn(C4CCNC4)nc3N(Cc3ccccc3C(F)(F)F)C2=O)CC1 (stereo not shown) [Example 94] |
| 8 | CCn1cc2c(n1)N(Cc1ccccc1C(F)(F)F)C(=O)N(C1CCN(c3c(C)cccc3F)CC1)C2 [Example 169] |
| 16 | Cc1cccc(F)c1N1CCC(N2Cc3cn(C)nc3N(Cc3ccccc3OC(F)(F)F)C2=O)CC1 [Example 232] |
| 13 | CC1c2cn(C3CC3)nc2N(Cc2ccccc2C(F)(F)F)C(=O)N1C1CCN(c2c(F)cccc2Br)CC1 (single isomer, unassigned) [Example 361] |
| 83 | CCOC(Cn1cc2c(n1)N(Cc1ccccc1C(F)(F)F)C(=O)N(C1CCN(c3c(C)cccc3F)CC1)C2)OCC [Example 28] |
| 412 | COc1nccc(Cl)c1N1CCC(N2C(=O)N(Cc3ccccc3C3CC3)c3nn(C)cc3C2C)CC1 (single isomer, unassigned) [Example 379] |
| 11 | Cc1cccc(F)c1N1CCC(C)(N2Cc3cn(C)nc3N(Cc3ccccc3C(F)(F)F)C2=O)CC1 [Example 217] |
| 428 | Cc1cccc(F)c1N1CCC(N2Cc3cn(C4CNC4)nc3N(Cc3ccccc3C(F)(F)F)C2=O)CC1 [Example 92] |
| 22 | Cc1cccc(F)c1N1CCC(N2Cc3cn(CC(C)(C)NS(=O)(=O)c4ccc(Cl)cc4)nc3N(Cc3ccccc3C(F)(F)F)C2=O)CC1 [Example 101] |
| 10 | Cc1cccc(F)c1N1CCC(N2Cc3cn(C)nc3N(Cc3ccccc3Cl)C2=O)CC1 [Example 233] |
| 120 | Cc1cccc(F)c1N1CCC(N2Cc3cn(CCN4CCN(C)CC4)nc3N(Cc3ccccc3C(F)(F)F)C2=O)CC1 [Example 65] |
| 11 | Cc1cccc(F)c1N1CCC(N2Cc3cn(CC4CC4(F)F)nc3N(Cc3ccccc3C(F)(F)F)C2=O)CC1 (single isomer, unassigned) [Example 190] |

| IC50 [nM] | SMILES |
| --- | --- |
| 637 | COC(=O)Cn1ncc2c1CN(C1CCN(c3c(C)cccc3F)CC1)C(=O)N2Cc1ccccc1C(F)(F)F [Example 19] |
| 1350 | CNC(=O)N1CC(n2cc3c(n2)N(Cc2ccccc2C(F)(F)F)C(=O)N(C2CCN(c4c(C)cccc4F)CC2)C3)C1 [Example 120] |
| 362 | CC1c2cn(C)nc2N(Cc2ccccc2C(F)(F)F)C(=O)N1C1CCN(c2c(F)cccc2C(F)F)CC1 (single isomer, unassigned) [Example 315] |
| 35 | COc1nccc(C)c1N1CCC(N2C(=O)N(Cc3ccccc3C(F)(F)F)c3nn(C4CC4)cc3C2C)CC1 (single isomer, unassigned) [Example 345] |
| 31 | CC1c2cn(C3CCCCO3)nc2N(Cc2ccccc2C(F)(F)F)C(=O)N1C1CCN(c2c(F)cccc2C(F)F)CC1 (stereo not shown) [Example 341] |
| 23 | Cc1cccc(F)c1N1CCC(N2Cc3n[nH]cc3N(Cc3ncccc3C(F)(F)F)C2=O)CC1 [Example 204] |
| 38 | Cc1cccnc1N1CCC(N2Cc3cn(C)nc3N(Cc3ccccc3C(F)(F)F)C2=O)CC1 [Example 69] |
| 15 | CCOC(=O)N1CC(n2cc3c(n2)N(Cc2ccccc2C(F)(F)F)C(=O)N(C2CCN(c4c(C)cccc4F)CC2)C3)C1 [Example 126] |
| 166 | Cc1nn(C)c(N2CCC(N3Cc4cn(C)nc4N(Cc4ccccc4C(F)(F)F)C3=O)CC2)c1Cl [Example 238] |
| 552 | COc1nccc(Cl)c1N1CCC(N2C(=O)N(Cc3ccccc3C(F)(F)F)c3nn(C)cc3C2C)CC1 (single isomer, unassigned) [Example 377] |
| 77 | Cc1cccc(F)c1N1CCC(N2C(=O)N(Cc3ccccc3C(F)(F)F)c3nn(C)cc3C2C)CC1 (single isomer, unassigned) [Example 221] |
| 24 | COC(=O)C(Cl)Cn1cc2c(n1)N(Cc1ccccc1C(F)(F)F)C(=O)N(C1CCN(c3c(C)cccc3F)CC1)C2 (stereo not shown) [Example 42] |
| 14 | COc1nccc(C)c1N1CCC(N2Cc3cn(C)nc3N(Cc3ccccc3C(F)(F)F)C2=O)CC1 [Example 54] |
| 28 | Cc1cccc(F)c1N1CCC(N2C(=O)N(Cc3ccccc3C3CC3)c3cn(C4CC4)nc3C2C)CC1 (single isomer, unassigned) [Example 279] |
| 570 | Cc1cccc(F)c1N1CCC(N2C(=O)N(Cc3ccccc3C(F)(F)F)c3cnn(CC(C)(F)F)c3C2C)CC1 (single isomer, unassigned) [Example 256] |
| 14 | CC1c2cn(C)nc2N(Cc2ccccc2C2CC2)C(=O)N1C1CCN(c2c(F)cccc2C2CC2)CC1 (single isomer, unassigned) [Example 325] |
| 74 | Cc1cccc(F)c1N1CCC(N2C(=O)N(Cc3ccccc3C(F)(F)F)c3cn(C)nc3C2C)CC1 (single isomer, unassigned) [Example 203] |
| 17 | Cc1cccc(F)c1N1CCC(N2Cc3cn(C)nc3N(Cc3ccccc3C(C)C)C2=O)CC1 [Example 231] |
